Laboratory results as given in patent publication US11819561B2, “Oral care compositions” (Colgate-Palmolive Company, priority 2020, dated 2023).

Legend:
[1] = Visual observation of formulation clarity and precipitation; assay type: physicochemical; conditions: Example 4, other cationic surfactants
Method: For the following experiments, a 0.2 wt. % aqueous solution of chlorhexidine gluconate, and a 10.0 wt. % aqueous solution of decyl glucoside (“APG”) are prepared. The pH of the decyl glucoside solution is adjusted to 5.5-7.0 using citric acid. For each formulation, the appropriate amount of the decyl glucoside solution is added to appropriate amounts of the chlorhexidine stock solution. STPP is then added to each formulation, and the mixture is agitated by a bath sonicator until no large solids remained. Additional citric acid is added to adjust the pH to 5.5-7.0. The formulations are then agitated for an additional five minutes, then allowed to equilibrate for 30 minutes before observation and transmittance measurements. For the following experiments, a 0.2 wt. % aqueous solution of chlorhexidine gluconate, and a 2.0 wt. % aqueous solution of CAPB are prepared. STPP is added to the chlorhexidine solution to provide 1.6 wt. % STPP. For each formulation, the appropriate amount of the CAPB solution is added to appropriate amounts of the chlorhexidine/STPP stock solution. The mixture is agitated by a bath sonicator, and then additional citric acid is added to adjust the pH to 6.12-6.19. The formulations are then agitated for an additional five minutes, then allowed to equilibrate for 18 hours before observation. […]

bacteria in saliva = experiment: Alamar blue test for antimicrobial activity; assay type: cell-based
Method: Antimicrobial activity of the formulations is tested to determine whether the chlorhexidine is fully active. The Alamar blue test for antimicrobial activity is conducted according to standard methodology. Bacteria inoculum is prepared by diluting fresh saliva 2× with deionized water, followed by centrifugation at 8000 G/25° C. for 10 min, and decanting the upper clear liquid into a glass jar. The negative control (A) is distilled water. The positive control (B) is 2 wt. % chlorhexidine gluconate solution. The APG control (C) is a 10 wt. % decyl glucoside solution. The two test solutions are: (D) 2 wt. % chlorhexidine gluconate with 10 wt. % decyl glucoside; and (E) 2 wt. % chlorhexidine gluconate with 10 wt. % decyl glucoside solution, with 14% w/w STPP added. Each of the test solutions is combined with saliva in a weight ratio of 1:10 (solution to saliva). The pH of each mixture is adjusted to 5.5-7 by adding citric acid. The mixtures are vortexed for 1 minute, and incubated at 37° C. for 30 minutes. Subsequent addition of 200 μL of Alamar Blue dye immediately produced blue color in all samples and pictures were taken for comparison at different time intervals (0 hours, 24 hours, 48 hours) to show the evolution of color development. A blue color indicates bacterial kill in saliva and no bacterial growth, while a pink color indicates viable bacteria are still present. […]

## benzalkonium chloride
[1]
  Stabilization effect on CHX/STPP: stabilization effect was not observed

## cocamidopropyl betaine [Sample (C) (CAPB contr)]
Bacteria in saliva; Example 2 (CAPB)
  Alamar Blue color change: color change from blue to pink after two days

## CCCCCCCCCCO[C@@H]1O[C@H](CO)[C@@H](O)[C@H](O)[C@H]1O [Sample (C) (APG contr), decyl glucoside]
Bacteria in saliva; Example 1 (APG)
  Alamar Blue color change: color change from blue to pink after two days
